Numbers after ± are expanded uncertainties.
Test: relative permittivity at zero frequency (dimensionless); xn = mol fraction of the nth substance listed
Settings: 101 kPa, Liquid, two-terminal dielectric cell

CC[N+](=O)[O-] [nitroethane] + Cc1ccc(C)cc1
298.15 K
Settings	relative permittivity at zero frequency
x1 = 0.001685	2.2782 ± 0.00043
x1 = 0.009202	2.35917 ± 0.00023
x1 = 0.01833	2.45822 ± 0.00023
x1 = 0.02729	2.55599 ± 0.00023
x1 = 0.03608	2.65295 ± 0.00023
x1 = 0.04032	2.69936 ± 0.00024
x1 = 0.05043	2.81296 ± 0.00024
x1 = 0.05899	2.91009 ± 0.00024
x1 = 0.0674	3.00647 ± 0.00024
x1 = 0.07566	3.10223 ± 0.00025

CC[N+](=O)[O-] [nitroethane] + ClC(Cl)(Cl)Cl
298.15 K
Settings	relative permittivity at zero frequency
x1 = 0.003529	2.27902 ± 0.00056
x1 = 0.00724	2.3313 ± 0.00029
x1 = 0.01443	2.4321 ± 0.00029
x1 = 0.02153	2.53048 ± 0.00029
x1 = 0.02851	2.62767 ± 0.00029
x1 = 0.0311	2.6639 ± 0.00029
x1 = 0.03397	2.7038 ± 0.00029
x1 = 0.04093	2.80121 ± 0.00029
x1 = 0.04779	2.89785 ± 0.00029
x1 = 0.05456	2.9938 ± 0.00029

C[N+](=O)[O-] [nitromethane] + c1ccccc1
Settings	relative permittivity at zero frequency
298.15 K, x1 = 0.000817	2.28834 ± 0.0011
298.15 K, x1 = 0.001228	2.294 ± 0.00055
298.15 K, x1 = 0.001638	2.29956 ± 0.00055
298.15 K, x1 = 0.002045	2.30518 ± 0.00055
298.15 K, x1 = 0.00245	2.31071 ± 0.00055
298.15 K, x1 = 0.003332	2.32281 ± 0.00055
298.15 K, x1 = 0.003559	2.32593 ± 0.00055
298.15 K, x1 = 0.004459	2.33824 ± 0.00055
298.15 K, x1 = 0.005656	2.35464 ± 0.00029
298.15 K, x1 = 0.006833	2.37085 ± 0.00029
298.15 K, x1 = 0.007322	2.37753 ± 0.00029
298.15 K, x1 = 0.007982	2.38639 ± 0.00029
298.15 K, x1 = 0.01242	2.44757 ± 0.00029
298.15 K, x1 = 0.01595	2.49623 ± 0.00029
298.15 K, x1 = 0.02031	2.55663 ± 0.0003
298.15 K, x1 = 0.02465	2.61628 ± 0.0003
298.15 K, x1 = 0.0332	2.7354 ± 0.0003
298.15 K, x1 = 0.04458	2.89495 ± 0.00031
298.15 K, x1 = 0.05494	3.03914 ± 0.00031
298.15 K, x1 = 0.06641	3.20367 ± 0.00033
298.15 K, x1 = 0.08012	3.40373 ± 0.00034
318.15 K, x1 = 0.000437	2.19342 ± 0.00092
318.15 K, x1 = 0.0008868	2.19856 ± 0.00092
318.15 K, x1 = 0.001333	2.20368 ± 0.00046
318.15 K, x1 = 0.001778	2.20876 ± 0.00046
318.15 K, x1 = 0.002219	2.21383 ± 0.00046
318.15 K, x1 = 0.002658	2.2188 ± 0.00046
318.15 K, x1 = 0.003857	2.23245 ± 0.00046
318.15 K, x1 = 0.004835	2.24352 ± 0.00046
318.15 K, x1 = 0.006131	2.25821 ± 0.00025
318.15 K, x1 = 0.007631	2.27516 ± 0.00024
318.15 K, x1 = 0.009325	2.29411 ± 0.00024
318.15 K, x1 = 0.01132	2.31664 ± 0.00025
318.15 K, x1 = 0.01305	2.33622 ± 0.00025
318.15 K, x1 = 0.0149	2.35704 ± 0.00025
318.15 K, x1 = 0.01628	2.37368 ± 0.00025
318.15 K, x1 = 0.02047	2.42114 ± 0.00025
318.15 K, x1 = 0.02519	2.47484 ± 0.00025
318.15 K, x1 = 0.03005	2.53001 ± 0.00026
318.15 K, x1 = 0.0345	2.58032 ± 0.00026
318.15 K, x1 = 0.04273	2.67386 ± 0.00026
318.15 K, x1 = 0.05416	2.80502 ± 0.00027
318.15 K, x1 = 0.06683	2.9527 ± 0.00028
318.15 K, x1 = 0.07816	3.08644 ± 0.00029
318.15 K, x1 = 0.09171	3.24999 ± 0.00024

ClC(Cl)(Cl)Cl [tetrachloromethane] + C[N+](=O)[O-]
Settings	relative permittivity at zero frequency
298.15 K, x2 = 0.00098	2.24081 ± 0.001
298.15 K, x2 = 0.001471	2.24714 ± 0.00051
298.15 K, x2 = 0.001979	2.25361 ± 0.00051
298.15 K, x2 = 0.002444	2.25959 ± 0.00051
298.15 K, x2 = 0.002927	2.26574 ± 0.00051
298.15 K, x2 = 0.003884	2.27791 ± 0.00051
298.15 K, x2 = 0.004245	2.28249 ± 0.00051
298.15 K, x2 = 0.00484	2.29002 ± 0.00051
298.15 K, x2 = 0.005797	2.30213 ± 0.00026
298.15 K, x2 = 0.006743	2.31404 ± 0.00026
298.15 K, x2 = 0.007679	2.32583 ± 0.00026
298.15 K, x2 = 0.008374	2.33457 ± 0.00026
298.15 K, x2 = 0.01041	2.35982 ± 0.00026
298.15 K, x2 = 0.01242	2.38483 ± 0.00026
298.15 K, x2 = 0.01439	2.40939 ± 0.00026
298.15 K, x2 = 0.01577	2.42642 ± 0.00026
298.15 K, x2 = 0.01737	2.44616 ± 0.00026
298.15 K, x2 = 0.01871	2.46233 ± 0.00026
298.15 K, x2 = 0.02204	2.50367 ± 0.00026
298.15 K, x2 = 0.02674	2.56122 ± 0.00026
298.15 K, x2 = 0.03418	2.65322 ± 0.00026
298.15 K, x2 = 0.04333	2.76524 ± 0.00026
298.15 K, x2 = 0.0523	2.87591 ± 0.00026
298.15 K, x2 = 0.0567	2.92988 ± 0.00026
318.15 K, x2 = 0.000162	2.23812 ± 0.00098
318.15 K, x2 = 0.000418	2.24125 ± 0.001
318.15 K, x2 = 0.0008265	2.24641 ± 0.001
318.15 K, x2 = 0.001238	2.25158 ± 0.0005
318.15 K, x2 = 0.001648	2.25667 ± 0.0005
318.15 K, x2 = 0.002055	2.26176 ± 0.0005
318.15 K, x2 = 0.00246	2.26679 ± 0.0005
318.15 K, x2 = 0.003263	2.2768 ± 0.0005
318.15 K, x2 = 0.003558	2.28051 ± 0.0005
318.15 K, x2 = 0.004468	2.29186 ± 0.0005
318.15 K, x2 = 0.005663	2.30678 ± 0.00026
318.15 K, x2 = 0.007033	2.3239 ± 0.00026
318.15 K, x2 = 0.007748	2.33263 ± 0.00026
318.15 K, x2 = 0.009707	2.35737 ± 0.00027
318.15 K, x2 = 0.0113	2.37756 ± 0.00026
318.15 K, x2 = 0.01572	2.4327 ± 0.00026
318.15 K, x2 = 0.02009	2.48822 ± 0.00026
318.15 K, x2 = 0.02486	2.54795 ± 0.00026
318.15 K, x2 = 0.02873	2.59732 ± 0.00027
318.15 K, x2 = 0.03299	2.65111 ± 0.00027
318.15 K, x2 = 0.0414	2.75865 ± 0.00027
318.15 K, x2 = 0.04472	2.80151 ± 0.00027
318.15 K, x2 = 0.054	2.91886 ± 0.00027
318.15 K, x2 = 0.06623	3.07885 ± 0.00027
318.15 K, x2 = 0.07426	3.18574 ± 0.00027
318.15 K, x2 = 0.08027	3.26614 ± 0.00027

From the NIST ThermoML archive (doi:10.1021/acs.jced.5b00369)
